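Interpolation was linear, between the two tested concentrations surrounding the appropriate level; five concentrations were tested over 48 hours in 96-well plates. GI50 marks 50% less growth.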 Calls of active or inactive are those of the source. Rule as the data show it: active = GI50 up to about 1.1 µM and inactive = higher.
Key:
Experiment in all cases: DTP human tumour cell line panel, 48 h
[1] = system: HCT-15
[2] = system: CAKI-1
[3] = system: HCT-116
[4] = system: NCI-H23
[5] = system: T47D
[6] = system: U-251
[7] = system: UACC-62
[8] = system: M14
[9] = system: CCRF-CEM
[10] = system: NCI/ADR-RES
[11] = system: MDA-N
[12] = system: Malme-3M
[13] = system: HCC 2998
[14] = system: A498
[15] = system: EKVX
[16] = system: BT-549
[17] = system: SF-268
[18] = system: OVCAR-3
[19] = system: PC-3
[20] = system: RPMI-8226
[21] = system: SNB-75
[22] = system: ACHN
[23] = system: MDA-MB-435
[24] = system: HOP-92
[25] = system: SW-620
[26] = system: SF-539
[27] = system: UACC-257
[28] = system: LOX IMVI
[29] = system: NCI-H226
[30] = system: SN12C
[31] = system: HT-29
[32] = system: NCI-H460
[33] = system: OVCAR-8
[34] = system: NCI-H522
[35] = system: HOP-62
[36] = system: MCF7
[37] = system: Hs-578T
[38] = system: 786-0
[39] = system: SNB-19
[40] = system: SK-MEL-28
[41] = system: SK-MEL-2
[42] = system: SF-295
[43] = system: MDA-MB-231
[44] = system: A549
[45] = system: KM12
[46] = system: TK-10
[47] = system: COLO 205
[48] = system: DU-145
[49] = system: SK-OV-3
[50] = system: UO-31
[51] = system: RXF 393
[52] = system: SK-MEL-5
[53] = system: HL-60
[54] = system: K562
[55] = system: OVCAR-4
[56] = system: IGROV-1
[57] = system: OVCAR-5

**Q.** What does the source list for Nc1ccc2c(c1)C(=O)c1c(F)cccc1-2?
**A.** GI50 [1]: 39.3 µM; GI50 [2]: 23.6 µM (inactive); GI50 [3]: 30.5 µM (inactive); GI50 [4]: 61.8 µM (inactive); GI50 [5]: 63.8 µM (inactive); GI50 [6]: 53.1 µM (inactive); GI50 [7]: 32 µM (inactive); GI50 [8]: 50.4 µM (inactive); GI50 [9]: 15 µM (inactive); GI50 [10]: 35.6 µM (inactive); GI50 [11]: 93.3 µM (inactive); GI50 [12]: 38.4 µM (inactive); GI50 [13]: 40 µM (inactive); GI50 [14]: > 100 µM (inactive); GI50 [15]: 0.656 µM (active); GI50 [16]: 39.3 µM (inactive); GI50 [17]: 17.9 µM (inactive); GI50 [18]: 25.9 µM (inactive); GI50 [19]: 31.2 µM (inactive); GI50 [20]: 20.4 µM (inactive); GI50 [21]: 10.4 µM (inactive); GI50 [22]: 34.1 µM (inactive); GI50 [23]: > 100 µM (inactive); GI50 [24]: 15.5 µM (inactive); GI50 [25]: 34.5 µM (inactive); GI50 [26]: 24.5 µM (inactive); GI50 [27]: > 100 µM (inactive); GI50 [28]: 41.6 µM (inactive); GI50 [29]: 27.7 µM (inactive); GI50 [30]: 39.1 µM (inactive); GI50 [31]: 27.7 µM (inactive); GI50 [32]: 31 µM (inactive); GI50 [33]: 43.1 µM (inactive); GI50 [34]: 34.5 µM (inactive); GI50 [35]: 30.3 µM (inactive); GI50 [36]: 10.1 µM (inactive); GI50 [37]: 27.9 µM (inactive); GI50 [38]: 29.4 µM (inactive); GI50 [39]: 53.1 µM (inactive); GI50 [40]: 34.2 µM (inactive); GI50 [41]: 81.7 µM (inactive); GI50 [42]: 46 µM (inactive); GI50 [43]: 45.6 µM (inactive); GI50 [44]: 96.6 µM (inactive); GI50 [45]: 40.5 µM (inactive); GI50 [46]: 47.2 µM (inactive); GI50 [47]: 44.3 µM (inactive); GI50 [48]: 45 µM (inactive); GI50 [49]: 85.7 µM (inactive); GI50 [50]: 20.8 µM (inactive); GI50 [51]: 42.2 µM (inactive); GI50 [52]: 25.5 µM (inactive)

**Q.** O=C(O)/C(Cc1ccc([N+](=O)[O-])cc1)=N\O was tested. Which GI50 [1] did it give?
**A.** > 100 µM

**Q.** And the GI50 [2]?
**A.** > 100 µM (inactive)

**Q.** And the GI50 [3]?
**A.** > 100 µM (inactive)

**Q.** What about the GI50 [4] of the same molecule?
**A.** > 100 µM (inactive)

**Q.** What about the GI50 [5] of the same molecule?
**A.** 94.6 µM (inactive)

**Q.** And the GI50 [6]?
**A.** > 100 µM (inactive)

**Q.** And the GI50 [7]?
**A.** > 100 µM (inactive)

**Q.** And the GI50 [8]?
**A.** > 100 µM (inactive)

**Q.** What about the GI50 [9] of the same molecule?
**A.** 73.6 µM (inactive)

**Q.** And the GI50 [10]?
**A.** > 100 µM (inactive)

**Q.** And the GI50 [11]?
**A.** > 100 µM (inactive)

**Q.** And the GI50 [12]?
**A.** > 100 µM (inactive)

**Q.** And the GI50 [13]?
**A.** > 100 µM (inactive)

**Q.** And the GI50 [14]?
**A.** > 100 µM (inactive)

**Q.** What about the GI50 [15] of the same molecule?
**A.** 39.1 µM (inactive)

**Q.** And the GI50 [16]?
**A.** 76.2 µM (inactive)

**Q.** And the GI50 [17]?
**A.** > 100 µM (inactive)

**Q.** What about the GI50 [18] of the same molecule?
**A.** > 100 µM (inactive)

**Q.** And the GI50 [19]?
**A.** > 100 µM (inactive)

**Q.** What about the GI50 [20] of the same molecule?
**A.** > 100 µM (inactive)

**Q.** What about the GI50 [22] of the same molecule?
**A.** > 100 µM (inactive)

**Q.** And the GI50 [53]?
**A.** 61.9 µM (inactive)

**Q.** What about the GI50 [23] of the same molecule?
**A.** > 100 µM (inactive)

**Q.** And the GI50 [24]?
**A.** 27.9 µM (inactive)

**Q.** And the GI50 [54]?
**A.** > 100 µM (inactive)

**Q.** What about the GI50 [25] of the same molecule?
**A.** > 100 µM (inactive)

**Q.** What about the GI50 [26] of the same molecule?
**A.** > 100 µM (inactive)

**Q.** And the GI50 [27]?
**A.** > 100 µM (inactive)

**Q.** What about the GI50 [28] of the same molecule?
**A.** > 100 µM (inactive)

**Q.** What about the GI50 [29] of the same molecule?
**A.** > 100 µM (inactive)

**Q.** And the GI50 [30]?
**A.** > 100 µM (inactive)

**Q.** What about the GI50 [31] of the same molecule?
**A.** > 100 µM (inactive)

**Q.** And the GI50 [32]?
**A.** > 100 µM (inactive)

**Q.** What about the GI50 [33] of the same molecule?
**A.** > 100 µM (inactive)

**Q.** What about the GI50 [34] of the same molecule?
**A.** 29.6 µM (inactive)

**Q.** And the GI50 [35]?
**A.** > 100 µM (inactive)

**Q.** And the GI50 [36]?
**A.** > 100 µM (inactive)

**Q.** And the GI50 [37]?
**A.** 31.8 µM (inactive)

**Q.** And the GI50 [38]?
**A.** > 100 µM (inactive)

**Q.** And the GI50 [39]?
**A.** > 100 µM (inactive)

**Q.** And the GI50 [40]?
**A.** > 100 µM (inactive)

**Q.** And the GI50 [41]?
**A.** > 100 µM (inactive)

**Q.** And the GI50 [42]?
**A.** > 100 µM (inactive)

**Q.** What about the GI50 [43] of the same molecule?
**A.** > 100 µM (inactive)

**Q.** What about the GI50 [44] of the same molecule?
**A.** > 100 µM (inactive)

**Q.** What about the GI50 [45] of the same molecule?
**A.** > 100 µM (inactive)

**Q.** And the GI50 [55]?
**A.** 89.5 µM (inactive)

**Q.** What about the GI50 [46] of the same molecule?
**A.** > 100 µM (inactive)

**Q.** And the GI50 [47]?
**A.** > 100 µM (inactive)

**Q.** What about the GI50 [56] of the same molecule?
**A.** 69.8 µM (inactive)

**Q.** What about the GI50 [48] of the same molecule?
**A.** > 100 µM (inactive)

**Q.** And the GI50 [49]?
**A.** > 100 µM (inactive)

**Q.** What about the GI50 [50] of the same molecule?
**A.** 23.8 µM (inactive)

**Q.** What about the GI50 [51] of the same molecule?
**A.** > 100 µM (inactive)

**Q.** And the GI50 [57]?
**A.** > 100 µM (inactive)

**Q.** And the GI50 [52]?
**A.** > 100 µM (inactive)

Source: ChEMBL document CHEMBL1201862, “PubChem BioAssay data set” (2004)
